According to publication PMC11500415, “Chemical inhibition of stomatal differentiation by perturbation of the master-regulatory bHLH heterodimer via an ACT-Like domain” (Nature Communications, 2024):
“And” between values parts separate entries of the source, which are not always exact repeats. Equal values may be shown once.

How the values were obtained:
empty+SCRM (control) = target: T1, empty+SCRM (control) (Arabidopsis thaliana, UniProt Q9LSE2); assay: Ratiometric BiFC, control empty+SCRM; type: cell-based; details: STOMI-treated, individual measurements
T1 construct: split YFP constructs fused to the full-length stomatal bHLH proteins; expressed in transfected cells; host or cells: Nicotiana benthamiana leaves (Agrobacterium infiltration)
T1 sequence (Q9LSE2 1-494): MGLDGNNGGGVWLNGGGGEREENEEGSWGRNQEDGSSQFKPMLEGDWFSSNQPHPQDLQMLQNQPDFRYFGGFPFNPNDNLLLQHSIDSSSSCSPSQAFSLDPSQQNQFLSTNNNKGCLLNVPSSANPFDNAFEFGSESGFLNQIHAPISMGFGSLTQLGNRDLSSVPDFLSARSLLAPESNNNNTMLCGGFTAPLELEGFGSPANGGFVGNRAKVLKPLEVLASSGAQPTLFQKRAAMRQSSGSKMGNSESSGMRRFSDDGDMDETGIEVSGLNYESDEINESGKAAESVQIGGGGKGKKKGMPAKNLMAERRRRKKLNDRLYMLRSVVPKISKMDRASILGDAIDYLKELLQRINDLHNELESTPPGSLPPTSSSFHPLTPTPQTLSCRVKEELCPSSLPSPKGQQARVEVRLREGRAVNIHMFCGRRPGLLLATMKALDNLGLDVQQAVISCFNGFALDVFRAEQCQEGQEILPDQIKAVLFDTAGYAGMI

SCRM2-FAMA heterodimer = target: T2, SCRM2-FAMA heterodimer (Arabidopsis thaliana, UniProt Q56YJ8); assay: Ratiometric BiFC in N. benthamiana leaves; type: cell-based; details: FAMA-SCRM2 pair, STOMI-treated, rescaled, average of 20; DMSO 0.813227
T2 construct: heterodimerization of SCRM with full-length SPCH, MUTE, or FAMA in the context of the plant cells; we performed rBiFC assays using full-length SCRM2; nYFP (N terminus of EYFP, 174 amino acids); cYFP (C terminus of EYFP, 64 amino acids); expressed in transfected cells; host or cells: Nicotiana benthamiana leaves (Agrobacterium infiltration)
Text: (§1) For ratiometric BiFC assays, the cDNAs of SPCH, MUTE, and FAMA were cloned into the 35S CaMV promoter-driven destination vector pSPYNE, which contains the N terminus of the EYFP protein (nYFP-174 amino acids), while the cDNA of SCRM and SCRM2 was inserted into pSPYCE, which contains the C terminus of the EYFP protein (cYFP-64 amino acids) (see Supplementary Table 5 for detailed information of the constructs). The constructs were then transformed into Agrobacterium tumefaciens strain GV3101. The Agrobacterium was resuspended in infiltration buffer (10 mM MgCl2, 10 mM 2-(N-morpholino)ethanesulfonic acid [pH 5.6], and 150 µM acetosyringone). Bacterial culture densities were adjusted to a final optical density (OD600) of 1.0, and the cell suspensions were incubated at room temperature for 4 hours prior to infiltration. Equal volumes of cultures carrying the corresponding complementary pair of BiFC constructs (YFPn and YFPc), along with CaMV35S::Histone H2B-mScarlet-I3 and the silencing suppressor plasmid p19 (a gift from Dr. Sir David Baulcombe) were mixed and then co-infiltrated into 4-week-old N. benthamiana leaves. The infiltrated N. benthamiana leaves were incubated at 25 °C for 2 days. Subsequently, leaf discs were cut out and cultured in mock or in liquid 1/2 MS media in mock (DMSO) or 100 µM Stomidazolone for 1 day. Confocal imaging of N. benthamiana leaves was performed using a Leica SP8 confocal microscope using a 20X objective lens (Leica Microsystems), simultaneously capturing YFP (excitation at 518 nm and emission at 530 nm) and mScarlet-I3 (excitation at 569 nm and emission at 600 nm) differential interference contrast channels.

SCRM2-SPCH heterodimer = target: T3, SCRM2-SPCH heterodimer (Arabidopsis thaliana, UniProt Q700C7); assay: Ratiometric BiFC in N. benthamiana leaves; type: cell-based; details: SPCH-SCRM2 pair, STOMI-treated, rescaled, average of 20; DMSO 0.870846
T3 construct: heterodimerization of SCRM with full-length SPCH, MUTE, or FAMA in the context of the plant cells; we performed rBiFC assays using full-length SCRM2; nYFP (N terminus of EYFP, 174 amino acids); cYFP (C terminus of EYFP, 64 amino acids); expressed in transfected cells; host or cells: Nicotiana benthamiana leaves (Agrobacterium infiltration)
Text: as §1

SCRM-FAMA heterodimer = target: T4, SCRM-FAMA heterodimer (Arabidopsis thaliana, UniProt Q56YJ8); assay: Ratiometric BiFC in N. benthamiana leaves; type: cell-based; details: BiFC FAMA+SCRM, STOMI-treated, individual measurements
T4 construct: heterodimerization of SCRM with full-length SPCH, MUTE, or FAMA in the context of the plant cells; combinations of split YFP constructs fused to the full-length stomatal bHLH proteins; nYFP (N terminus of EYFP, 174 amino acids); cYFP (C terminus of EYFP, 64 amino acids); expressed in transfected cells; host or cells: Nicotiana benthamiana leaves (Agrobacterium infiltration)
T4 sequence (Q56YJ8 1-414): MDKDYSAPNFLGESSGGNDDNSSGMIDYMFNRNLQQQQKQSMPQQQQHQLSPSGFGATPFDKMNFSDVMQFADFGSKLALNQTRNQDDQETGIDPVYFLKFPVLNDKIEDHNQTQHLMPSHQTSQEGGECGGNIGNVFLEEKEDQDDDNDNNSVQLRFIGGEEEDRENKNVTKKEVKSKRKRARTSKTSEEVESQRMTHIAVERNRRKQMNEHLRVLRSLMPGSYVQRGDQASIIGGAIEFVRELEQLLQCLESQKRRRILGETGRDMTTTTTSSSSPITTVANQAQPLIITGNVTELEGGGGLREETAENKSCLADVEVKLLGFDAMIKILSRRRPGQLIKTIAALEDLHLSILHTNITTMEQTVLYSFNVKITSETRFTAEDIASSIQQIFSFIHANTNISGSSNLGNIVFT
Text: as §1

SCRM2-MUTE heterodimer = target: T5, SCRM2-MUTE heterodimer (Arabidopsis thaliana, UniProt Q9M8K6); assay: Ratiometric BiFC in N. benthamiana leaves; type: cell-based; details: MUTE-SCRM2 pair, STOMI-treated, rescaled, average of 20; DMSO 0.692877
T5 construct: heterodimerization of SCRM with full-length SPCH, MUTE, or FAMA in the context of the plant cells; nYFP (N terminus of EYFP, 174 amino acids); expressed in transfected cells; host or cells: Nicotiana benthamiana leaves (Agrobacterium infiltration)
Text: as §1

SCRM-MUTE heterodimer = target: T6, SCRM-MUTE heterodimer (Arabidopsis thaliana, UniProt Q9M8K6); assay: Ratiometric BiFC in N. benthamiana leaves; type: cell-based; details: BiFC MUTE+SCRM, STOMI-treated, individual measurements
T6 construct: expressed in transfected cells; host or cells: yeast strain AH109
T6 sequence (Q9M8K6 1-202): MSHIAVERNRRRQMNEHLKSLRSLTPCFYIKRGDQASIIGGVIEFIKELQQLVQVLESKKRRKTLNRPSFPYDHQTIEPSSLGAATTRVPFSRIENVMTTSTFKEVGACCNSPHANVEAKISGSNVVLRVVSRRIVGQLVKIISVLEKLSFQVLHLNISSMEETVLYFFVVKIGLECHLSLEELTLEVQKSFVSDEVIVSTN
Text: as §1

SCRM-SPCH heterodimer = target: T7, SCRM-SPCH heterodimer (Arabidopsis thaliana, UniProt Q700C7); type: cell-based; details: STOMI-treated
T7 construct: heterodimerization of SCRM with full-length SPCH, MUTE, or FAMA in the context of the plant cells; combinations of split YFP constructs fused to the full-length stomatal bHLH proteins; nYFP (N terminus of EYFP, 174 amino acids); cYFP (C terminus of EYFP, 64 amino acids); expressed in transfected cells; host or cells: Nicotiana benthamiana leaves (Agrobacterium infiltration)
T7 sequence (Q700C7 1-364): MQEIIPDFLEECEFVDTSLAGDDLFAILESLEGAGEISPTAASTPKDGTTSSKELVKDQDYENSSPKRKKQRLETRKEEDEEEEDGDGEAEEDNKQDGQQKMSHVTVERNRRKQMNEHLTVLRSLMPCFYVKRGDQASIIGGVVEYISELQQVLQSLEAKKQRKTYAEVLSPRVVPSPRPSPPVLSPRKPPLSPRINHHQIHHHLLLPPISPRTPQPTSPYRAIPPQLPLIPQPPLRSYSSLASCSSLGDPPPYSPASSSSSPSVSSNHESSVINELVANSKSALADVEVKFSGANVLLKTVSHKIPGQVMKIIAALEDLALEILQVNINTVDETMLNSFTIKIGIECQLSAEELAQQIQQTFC
Text: as §1

stomatal movement = tested on: stomatal movement; set-up: method as in PMID 35042960; details: previous chemical screens and SAR studies; cited from earlier work
[1] = BiFC SPCH+SCRM, individual measurements

O=C1C(c2ccccc2)=NC(NS(=O)(=O)c2ccccc2)(c2ccccc2)N1S(=O)(=O)c1ccccc1 (racemic) [STOMI]
YFP (empty+SCRM (control)): 0.095 and 0.409 and 0 and 0.026 and 5.60E-04 and 0.042 | YFP/mScarlet (empty+SCRM (control)): 0.0009064 and 0.01087 and 0 and 0.0008066 and 3.5039e-6 and 0.000976 | mScarlet (empty+SCRM (control)): 104.805 and 37.637 and 55.755 and 32.234 and 159.765 and 43.034 | BiFC YFP/mScarlet signal intensity ratio, average (SCRM2-FAMA heterodimer): 0.1443 | BiFC YFP/mScarlet signal intensity ratio, average (SCRM2-SPCH heterodimer): 0.1468 | YFP (SCRM-FAMA heterodimer): 186.917 and 54.749 and 197.322 and 78.346 and 117.223 and 50.688 | YFP/mScarlet (SCRM-FAMA heterodimer): 0.9773 and 1.064 and 0.9455 and 1.191 and 0.9038 and 0.8169 | mScarlet (SCRM-FAMA heterodimer): 191.252 and 51.452 and 208.697 and 65.781 and 129.694 and 62.052 | BiFC YFP/mScarlet signal intensity ratio, average (SCRM2-MUTE heterodimer): 0.1063 | YFP (SCRM-MUTE heterodimer): 1.16E+01 and 3.104 and 3.249 and 11.738 and 9.681 and 6.858 | YFP/mScarlet (SCRM-MUTE heterodimer): 0.2554 and 0.01703 and 0.0181 and 0.2123 and 0.2385 and 0.1574 | mScarlet (SCRM-MUTE heterodimer): 45.576 and 182.295 and 179.515 and 55.282 and 40.598 and 43.561 | YFP (SCRM-SPCH heterodimer; [1]): 42.813 and 234.339 and 61.532 and 61.417 and 224.742 and 142.963 | mScarlet (SCRM-SPCH heterodimer; [1]): 36.031 and 235.498 and 75.919 and 70.723 and 231.024 and 153.918 | BiFC YFP/mScarlet signal intensity ratio, average (SCRM-SPCH heterodimer; SPCH-SCRM pair, rescaled, average of 20, DMSO 0.999748): 0.9445

O=S(=O)(c1ccccc1)N(c1oc(-c2ccccc2)nc1-c1ccccc1)S(=O)(=O)c1ccccc1 [SIM1]
effect on stomatal movement (in words) (stomatal movement): inhibit stomatal movement
